The target of this assay is T1, KRAS G12D:RAF1 protein interaction [KRAS G12D:RAF1蛋白相互作用] (Homo sapiens, UniProt P01116, G12D).
T1 construct: purchased Cisbio 63ADK000CB21PEG
Kind of assay: Inhibition of the KRAS G12D:RAF1 protein interaction (TR-FRET binding assay). The following applies: in vitro, 10000nM-0.1nM, 4 h at room temperature.

This is an account of results in patent publication CN116323625A, “杂环类衍生物、其制备方法及其医药上的用途” (Zhejiang Hisun Pharmaceutical Co Ltd, priority 2021, dated 2023).

As a reminder, the IC50 is the concentration at which inhibition is half-maximal.

T1 sequence (P01116 1-188 isoform P01116-2 G12D): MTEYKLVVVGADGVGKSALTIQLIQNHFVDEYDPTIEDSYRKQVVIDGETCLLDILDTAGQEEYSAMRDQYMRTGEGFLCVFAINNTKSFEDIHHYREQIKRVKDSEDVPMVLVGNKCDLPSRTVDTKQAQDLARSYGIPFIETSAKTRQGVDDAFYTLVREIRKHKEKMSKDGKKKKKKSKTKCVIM

In turn, `O=C([C@H]1CCCN1)N1C2CCC1CN(c1nc(OC[C@@]34CCCN3C[C@H](F)C4)nc3c(F)c(-c4cc(O)cc5cccc(F)c45)ncc13)C2` [实施例3, 4-(8-(D-prolyl)-3,8-diazabicyclo[3.2.1]octan-3-yl)-8-fluoro-7-(8-fluoro-3-hydroxynaphthalen-1-yl)-2-(((2R,7aS)-2-fluorotetrahydro-1H-pyrrolizin-7a(5H)-yl)methoxy)pyrido[4,3-d]pyrimidine] yielded an IC50 of 0.114 µM.

Turning to `OCCN1C2CCC1CN(c1nc(OC[C@@]34CCCN3C[C@H](F)C4)nc3c(F)c(-c4cc(O)cc5cccc(F)c45)ncc13)C2` [实施例2, 5-fluoro-4-(8-fluoro-2-(((2R,7aS)-2-fluorotetrahydro-1H-pyrrolizin-7a(5H)-yl)methoxy)-4-(8-(2-hydroxyethyl)-3,8-diazabicyclo[3.2.1]octan-3-yl)pyrido[4,3-d]pyrimidin-7-yl)naphthalen-2-ol], the IC50 worked out at 0.189 µM.
